Measured values taken from patent US20050209336A1, “EP2 receptor agonists” (priority 2003, published 2005).
Like-named read-outs stand apart in the source and are kept apart here.

Columns and labels:
Assay type in all cases: cell-based, human
[1] = tested on: TNFα production by lymphocytes; test: Lymphocyte assay: TNFα production; settings: Homo sapiens, Lymphocyte, inhibition of TNFα production by lymphocytes, mean of three donors
Excerpt: (§1) Lymphocytes are mononuclear leukocytes, which participate in specific immune responses to foreign antigens and in the manifestation of auto-immune diseases. T lymphocytes produce IL-2, a key factor for lymphocyte activation and proliferation, in response to antigen stimulation via the CD3-T cell receptor complex and the pathway involved in this response is the NF-AT. […] A lymphocyte assay was designed to model this response and to determine the effect of test compound on IL-2 production by anti-CD3-stimulated T cells isolated from peripheral blood. This assay uses a sub-optimal dose of an anti-CD3 monoclonal antibody (OKT3, 25 ng/ml) immobilised to a 96-well plate to stimulate a T cell response. The level of IL-2 released into the cell culture supernatants was quantified using a standard sandwich ELISA. Similarly, other cytokines such as TNFα and IFN-γ can also be measured in the same assay.
(§2) Human peripheral blood mononuclear cells from healthy volunteers were isolated from whole blood by Ficoll-Hypaque density centrifugation and adherence to plastic. The non-adherent lymphocyte fraction was used to set up the lymphocyte assay and the adherent monocytes were then recovered by scraping and subsequently used in the monocyte assay.
(§3) Lymphocytes were then seeded to a 96-well plate pre-coated with anti-CD3 monoclonal antibody (OKT3) at 25 ng/ml and immediately, the test compounds (Peak 1, mixture 1 acid; Peak 1, mixture 2 acid; AH-13205 racemate; PGE2) in appropriate dilutions were added to corresponding wells according to the experimental design. The plate was incubated for 24 hours at 37° C. with 5% CO2 in air and supernatants were recovered for ELISA analysis at the end of incubation period. The levels of IFN-γ was assessed by using the ProteoPlex 16 well human cytokine array assay kit according to the manufacturer's instruction.

[2] = tested on: TNFα production by alveolar macrophages; test: Alveolar macrophage assay: LPS-induced TNFα release; settings: Homo sapiens, Macrophage, inhibition of TNFα production, LPS 1 μg/ml, 24 h, mean of three donors
Protocol: Human lung parenchyma was cut into small pieces and perfused with ice-cold phosphate buffered saline (PBS) to remove contaminating blood and mucus. The tissues were then chopped with scissors in the presence of Minimum Essential Medium supplemented with penicillin, streptomycin, L-glutamine and DNase (0.25 mg/ml). The chopped tissues were shaken gently to dislodge the macrophages. A crude cell suspension was then obtained by the removal of the tissues with a sterile filter (150 μm pore size). The resulting cell suspension was spun and the cell pellet collected. Contaminating red blood cells were depleted with a red blood cell lysis buffer and the remaining cells washed twice with PBS by centrifugation. Alveolar macrophages were then purified from this cell preparation by using a positive selection method for CD14-molecule bearing cells using a VarioMac™ Separator and respective positive selection reagents and columns supplied by Miltenyi Biotec Ltd according to the manufacturer's instruction.
For the assay, alveolar macrophages were resuspended in complete culture medium consisting of RPMI1640 supplemented with 10% foetal calf serum, L-glutamine and antibiotics. The cells were then plated into 24 well plates (4×10^5 cell/well) and incubated overnight at 37° C. with 5% CO2 in air to allow cell adherence. The exhausted medium was then removed from the plates and the plates rinsed briefly with fresh medium before the addition of test compound solutions. The test compounds were incubated with the cells for 30 minutes before the addition of E. Coli LPS (1 μg/ml). The assay plates were incubated in a humidified incubator at 37° C. with 5% CO2 in air for 24 hours. The release of TNFα by the cells into the culture supernatants was quantified using an ELISA kit (DuoSet® human TNFα ELSIA Development System) supplied by R+D Systems (Europe) according to the manufacturer's instruction. Indomethacin at 3 μM was included in all treatments to inhibit the possible release of endogenous prostaglandin E2.

[3] = tested on: interferon gamma release by lymphocytes; test: Lymphocyte assay: interferon gamma release; settings: two donors (FIG. 11)
Excerpt: as §1, with “assay. […]” for “assay.”
as §3, with “The plate was incubated for 24 hours at 37° C. with 5% CO2 in air and supernatants were recovered for ELISA analysis at the end of incubation period.” left out

lymphocyte proliferation = test: Lymphocyte proliferation driven by immobilised anti-CD3 antibody; settings: Homo sapiens, inhibition of lymphocyte proliferation, 72 h, mean of three donors
Excerpt: as §1, §2
For the measurement of lymphocyte proliferation driven by immobilised anti-CD3 monoclonal antibody, the assay was set up in the same way as for the measurement of IL-2 release, except that the cells were cultured for 72 hours in the presence or absence of test compounds. Four hours prior to the termination of the proliferation assay, a novel tetrazolium compound solution supplied by Promega in the format of Cell Proliferation Assay Kit was added to individual wells according to the manufacturer's instruction. The plate was then placed back in the incubator for the remaining 4 hours and the […] reaction was measured using a spectrophotometer at an absorbent wavelength of 490 nm (SpectraMax, Molecular Devices) according to the manufacturer's instruction.

[4] = log scale, read-out: Mean Log (EC50) (converted)

Compound: CCCCC[C@H](O)c1ccc([C@H]2CCC(=O)[C@@H]2CCCCCCC(=O)O)cc1 (single isomer, unassigned) [Peak 1, Mixture 1 acid]
- EC50 ([1]; read-out: Mean EC50): 2330 nM
- EC50 [1, 4]: 2330 nM
- EC50 ([2]; read-out: Mean EC50): 7.02 µM
- EC50 [2, 4]: 7.01 µM
- interferon gamma release [3]: concentration-dependently inhibit interferon gamma release
- EC50 (lymphocyte proliferation; read-out: Mean EC50): 10 µM
- EC50 (lymphocyte proliferation; [4]): 10 µM
